What was measured:
KIT = target: T1, KIT (Homo sapiens, UniProt P10721); experiment: Competition binding assay, KIT Kd
T1 construct: made in house
Procedure: (§1) Competition binding assays used herein were developed, validated and performed as described in Fabian et al., Nature Biotechnology 2005, 23, 329-336. Kinases were produced as fusions to T7 phage (See, Fabian et al. or WO04/015142) or alternatively, the kinases were expressed in HEK-293 cells and subsequently tagged with DNA for PCR detection (See, WO08/005310). For the binding assays, streptavidin-coated magnetic beads were treated with biotinylated affinity ligands for 30 min at room temperature to generate affinity resins. The liganded beads were blocked with excess biotin and washed with blocking buffer (SeaBlock (Pierce), 1% BSA, 0.05% Tween 20, 1 mM DTT) to remove unbound ligand and to reduce non-specific binding. Binding reactions were assembled by combining kinase, liganded affinity beads, and test compounds in 1× binding buffer (20% SeaBlock, 0.17×PBS, 0.05% Tween 20, 6 mM DTT). Test compounds were prepared as 100× stocks in DMSO and diluted into the aqueous environment. Kds were determined using an eleven point threefold serial dilutions. DMSO or control compounds were was added to control assays lacking a test compound. Primary screen assays were performed in polypropylene 384-well plates in a final volume of 20-40 μL, while Kd determinations were performed in polystyrene 96-well plates in a final volume of 135 μL. The assay plates were incubated at room temperature with shaking for 1 hour to allow the binding reactions to reach equilibrium, and the affinity beads were washed extensively with wash buffer (1×PBS, 0.05% Tween 20) to remove unbound protein. The beads were then resuspended in elution buffer (1×PBS, 0.05% Tween […] non-biotinylated affinity ligand) and incubated at room temperature with shaking for 30 min. The kinase concentration in the eluates was measured by quantitative PCR.

CSF1R [1] = target: T2, CSF1R (Homo sapiens, UniProt P07333); experiment: HEK293 CSF1R phosphorylation MSD assay; format: cell-based; parameters: expressed in transfected cells; host or cells: HEK293; conditions: 2 h compound, human M-CSF 50 ng/mL for 5 min; read-out: HEK293 pCSF1R M-CSF MSD:IC50
T2 sequence (P07333 20-972): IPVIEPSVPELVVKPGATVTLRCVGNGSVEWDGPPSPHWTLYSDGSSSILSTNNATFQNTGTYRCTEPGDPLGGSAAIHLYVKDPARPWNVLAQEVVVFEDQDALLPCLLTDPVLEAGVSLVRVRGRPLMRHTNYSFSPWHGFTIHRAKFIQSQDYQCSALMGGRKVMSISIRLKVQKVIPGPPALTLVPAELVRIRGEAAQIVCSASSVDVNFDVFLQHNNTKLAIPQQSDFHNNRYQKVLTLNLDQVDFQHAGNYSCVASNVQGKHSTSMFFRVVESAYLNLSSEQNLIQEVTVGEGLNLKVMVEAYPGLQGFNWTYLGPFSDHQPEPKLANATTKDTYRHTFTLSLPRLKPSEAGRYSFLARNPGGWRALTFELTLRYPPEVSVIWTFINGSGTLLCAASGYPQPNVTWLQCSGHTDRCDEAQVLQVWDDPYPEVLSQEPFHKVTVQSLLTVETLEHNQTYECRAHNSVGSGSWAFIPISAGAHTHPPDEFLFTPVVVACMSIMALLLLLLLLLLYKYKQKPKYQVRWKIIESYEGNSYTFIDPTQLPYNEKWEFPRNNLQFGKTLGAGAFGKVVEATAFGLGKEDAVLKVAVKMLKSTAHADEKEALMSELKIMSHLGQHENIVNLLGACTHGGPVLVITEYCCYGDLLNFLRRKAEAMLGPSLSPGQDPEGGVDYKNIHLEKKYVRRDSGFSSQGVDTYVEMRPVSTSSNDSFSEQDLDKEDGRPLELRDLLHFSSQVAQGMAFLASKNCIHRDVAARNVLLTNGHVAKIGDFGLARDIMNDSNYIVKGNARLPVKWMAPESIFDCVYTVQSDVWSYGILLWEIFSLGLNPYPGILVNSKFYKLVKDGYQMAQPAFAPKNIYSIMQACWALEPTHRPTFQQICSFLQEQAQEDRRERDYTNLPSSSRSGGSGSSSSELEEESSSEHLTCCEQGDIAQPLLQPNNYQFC
Procedure: The compounds disclosed herein were tested in a CSF1R phosphorylation assay to determine their cellular potency against CSF1R. A HEK293 cell line expressing CSF1R fused to FK506 binding protein (FKBP) as a molecular tag was generated. Inhibition of CSF1R kinase activity will prevent ligand-stimulated autophosphorylation of the CSF1R-FKBP in intact cells. Subsequent cell lysates are assayed in a sandwich ELISA employing the electrochemiluminescent Meso Scale Discovery (MSD) technology for the presence of the phosphorylated (p)CSF1R-FKBP. This assay determines the potency of compounds as CSF1R inhibitors by measuring the reduction in the amount of pCSF1R with increasing doses of compounds added to the cells prior to M-CSF stimulation.
On day one of the experiment, HEK293-CSF1R-FKPB cells, maintained in DMEM, with L-glutamine (Mediatech), 10% FBS, and 100 units/mL Penicillin/Streptomycin, were seeded at 50,000 cell/well in a volume of 100 μL per well in 96-well Cell Bind plates (Costar). The cells were cultured overnight at 37° C. under 5% CO2. To prepare the plates used in the MSD assay, a 330 nM biotin-FK506 (in TBS pH 7.2) solution was added at 30 μL per well to streptavidin-coated 96-well plates (MSD), and incubated overnight at room temperature, shaking at 500 rpm on an orbital shaker.
On day two, compounds diluted in DMSO were added to the cells in duplicate plates at 9 different concentrations with half-log intervals, plus DMSO only control, alongside a reference compound serving as a positive control. Final DMSO concentration was 0.5% in a volume of 200 μL per well. The compounds were allowed to incubate with the cells for 2 h at 37° C. under 5% CO2. At the end of the incubation, human M-CSF (R&D Systems) was added for 5 min to a final concentration of 50 ng/mL to stimulate CSF1R phosphorylation. Cells were lysed for 20 min, and the lysates were applied to the washed, FK506-coated MSD plates, and incubated overnight at 4° C. shaking at 500 rpm.
On day three, the MSD plates were washed, and the captured CSF1R-FKBP was assayed sequentially for phosphorylation using mouse anti-phosphotyrosine antibody (Millipore) and Sulfo-TAG goat anti-mouse IgG antibody (MSD), and detected on a Sector Imager 6000 instrument (MSD).
A single IC50 value for each compound was determined by averaging the IC50s of the duplicates calculated using Igor Pro 6 software, and represents the compound concentration that achieves a 50% inhibition of ligand-induced CSF1R phosphorylation compared to DMSO control.

CSF1R [2] = target: T2, CSF1R; experiment: Competition binding assay, CSF1R Kd; parameters: made in house
Procedure: as §1

M-NFS-60 cells = experiment: M-NFS-60 cell proliferation assay (Alamar Blue); format: cell-based, mouse; conditions: Mus musculus; 72 hours incubation, M-CSF 20 ng/mL; read-out: CSF1R M-NFS-60 CTB:IC50
Procedure: The compounds disclosed herein were tested in an M-NFS-60 cell proliferation assay to determine their cellular potency against CSF1R. M-NFS-60s are mouse monocytic cells that depend on the binding of the ligand M-CSF to its receptor, CSF1R, to proliferate. Inhibition of CSF1R kinase activity will cause reduced growth and/or cell death. This assay assesses the potency of compounds as CSF1R inhibitors by measuring the reduction of Alamar Blue reagent by viable cells.
On day one of the experiment, M-NFS-60 cells were maintained in RPMI complete medium (Omega Scientific) plus 10% FBS supplemented with 20 ng/mL of M-CSF (R&D Systems). 96-well TC-treated, flat bottom plates were seeded at 10,000 cell/well at a volume of 100 μL per well. The cells were cultured overnight at 37° C. under 5% CO2.
On day two, compounds were added to the cells at 9 different concentrations, with half-log intervals alongside a control reference compound serving as a positive control. Final DMSO concentration was kept at 0.5% for a final volume of 200 μL. The compounds were allowed to incubate with the cells for 72 hours at 37° C. under 5% CO2.
On day five of the experiment, 40 μl of Alamar Blue reagent was added to each well and allowed to incubate for 3 hours. Alamar Blue fluorescence was read using SoftMax Pro software at 560 nm (excitation) and 590 nm (emission). IC50s were generated as an average of duplicates and represents the concentration of test compound that achieves 50% inhibition of cellular proliferation compared to control.

FLT3 = target: T3, FLT3 (Homo sapiens, UniProt P36888); experiment: Competition binding assay, FLT3 Kd
T3 construct: made in house
T3 sequence (P36888 27-993): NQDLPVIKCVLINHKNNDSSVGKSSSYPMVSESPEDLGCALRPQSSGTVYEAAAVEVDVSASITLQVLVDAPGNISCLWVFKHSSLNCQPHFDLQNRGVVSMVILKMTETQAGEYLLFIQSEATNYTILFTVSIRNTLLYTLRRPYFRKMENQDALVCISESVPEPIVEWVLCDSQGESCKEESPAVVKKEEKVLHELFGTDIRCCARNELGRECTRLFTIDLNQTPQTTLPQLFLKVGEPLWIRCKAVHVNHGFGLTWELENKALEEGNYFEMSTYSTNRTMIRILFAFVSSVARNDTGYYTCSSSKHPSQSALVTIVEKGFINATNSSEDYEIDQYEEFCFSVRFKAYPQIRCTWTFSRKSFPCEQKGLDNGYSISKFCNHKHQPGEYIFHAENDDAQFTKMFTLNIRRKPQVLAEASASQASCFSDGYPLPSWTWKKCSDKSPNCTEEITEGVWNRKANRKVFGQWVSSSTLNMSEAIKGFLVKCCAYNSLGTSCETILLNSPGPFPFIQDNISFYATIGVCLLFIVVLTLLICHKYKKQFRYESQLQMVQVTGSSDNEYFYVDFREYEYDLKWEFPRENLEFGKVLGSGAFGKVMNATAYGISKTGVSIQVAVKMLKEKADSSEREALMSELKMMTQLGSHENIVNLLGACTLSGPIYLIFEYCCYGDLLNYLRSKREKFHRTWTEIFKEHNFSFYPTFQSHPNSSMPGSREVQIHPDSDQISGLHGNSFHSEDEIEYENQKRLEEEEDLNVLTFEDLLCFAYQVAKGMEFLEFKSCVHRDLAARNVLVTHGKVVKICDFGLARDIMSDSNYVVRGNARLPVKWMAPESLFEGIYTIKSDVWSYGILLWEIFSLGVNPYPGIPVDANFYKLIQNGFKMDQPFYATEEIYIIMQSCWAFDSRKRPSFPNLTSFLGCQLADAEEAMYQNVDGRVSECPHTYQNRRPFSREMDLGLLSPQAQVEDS
Procedure: as §1

PDGFRβ = target: T4, PDGFRβ (Homo sapiens, UniProt P09619); experiment: Competition binding assay, PDGFRβ Kd
T4 construct: made in house
T4 sequence (P09619 33-1106): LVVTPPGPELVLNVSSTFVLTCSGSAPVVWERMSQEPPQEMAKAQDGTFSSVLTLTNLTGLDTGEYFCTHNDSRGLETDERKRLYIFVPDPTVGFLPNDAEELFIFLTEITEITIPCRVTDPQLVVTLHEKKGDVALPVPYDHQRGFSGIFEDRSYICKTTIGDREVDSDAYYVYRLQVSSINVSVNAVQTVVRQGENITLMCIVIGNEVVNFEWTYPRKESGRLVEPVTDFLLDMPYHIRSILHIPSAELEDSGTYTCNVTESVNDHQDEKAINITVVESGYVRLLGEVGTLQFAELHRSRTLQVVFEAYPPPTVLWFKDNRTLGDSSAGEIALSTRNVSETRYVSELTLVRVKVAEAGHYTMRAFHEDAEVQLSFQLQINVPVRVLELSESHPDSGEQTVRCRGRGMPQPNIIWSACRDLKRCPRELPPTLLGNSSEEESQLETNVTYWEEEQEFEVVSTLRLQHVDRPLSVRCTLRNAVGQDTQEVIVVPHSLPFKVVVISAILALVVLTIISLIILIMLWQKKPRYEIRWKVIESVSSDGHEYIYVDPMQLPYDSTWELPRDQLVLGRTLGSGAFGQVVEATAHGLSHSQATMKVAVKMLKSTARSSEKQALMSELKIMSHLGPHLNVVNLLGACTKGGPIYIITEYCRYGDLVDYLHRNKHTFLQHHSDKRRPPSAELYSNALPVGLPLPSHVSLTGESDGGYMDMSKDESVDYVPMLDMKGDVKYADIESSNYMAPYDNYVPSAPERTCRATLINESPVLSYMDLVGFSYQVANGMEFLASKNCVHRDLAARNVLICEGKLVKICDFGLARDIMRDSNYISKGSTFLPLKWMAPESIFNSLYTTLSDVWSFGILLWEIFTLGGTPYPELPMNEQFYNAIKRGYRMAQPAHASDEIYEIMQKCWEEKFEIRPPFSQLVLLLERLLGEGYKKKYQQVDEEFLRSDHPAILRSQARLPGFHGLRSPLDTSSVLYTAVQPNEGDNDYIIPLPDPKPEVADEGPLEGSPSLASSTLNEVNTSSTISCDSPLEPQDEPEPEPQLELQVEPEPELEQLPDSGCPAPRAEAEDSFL
Procedure: as §1

T1 sequence (P10721 26-976): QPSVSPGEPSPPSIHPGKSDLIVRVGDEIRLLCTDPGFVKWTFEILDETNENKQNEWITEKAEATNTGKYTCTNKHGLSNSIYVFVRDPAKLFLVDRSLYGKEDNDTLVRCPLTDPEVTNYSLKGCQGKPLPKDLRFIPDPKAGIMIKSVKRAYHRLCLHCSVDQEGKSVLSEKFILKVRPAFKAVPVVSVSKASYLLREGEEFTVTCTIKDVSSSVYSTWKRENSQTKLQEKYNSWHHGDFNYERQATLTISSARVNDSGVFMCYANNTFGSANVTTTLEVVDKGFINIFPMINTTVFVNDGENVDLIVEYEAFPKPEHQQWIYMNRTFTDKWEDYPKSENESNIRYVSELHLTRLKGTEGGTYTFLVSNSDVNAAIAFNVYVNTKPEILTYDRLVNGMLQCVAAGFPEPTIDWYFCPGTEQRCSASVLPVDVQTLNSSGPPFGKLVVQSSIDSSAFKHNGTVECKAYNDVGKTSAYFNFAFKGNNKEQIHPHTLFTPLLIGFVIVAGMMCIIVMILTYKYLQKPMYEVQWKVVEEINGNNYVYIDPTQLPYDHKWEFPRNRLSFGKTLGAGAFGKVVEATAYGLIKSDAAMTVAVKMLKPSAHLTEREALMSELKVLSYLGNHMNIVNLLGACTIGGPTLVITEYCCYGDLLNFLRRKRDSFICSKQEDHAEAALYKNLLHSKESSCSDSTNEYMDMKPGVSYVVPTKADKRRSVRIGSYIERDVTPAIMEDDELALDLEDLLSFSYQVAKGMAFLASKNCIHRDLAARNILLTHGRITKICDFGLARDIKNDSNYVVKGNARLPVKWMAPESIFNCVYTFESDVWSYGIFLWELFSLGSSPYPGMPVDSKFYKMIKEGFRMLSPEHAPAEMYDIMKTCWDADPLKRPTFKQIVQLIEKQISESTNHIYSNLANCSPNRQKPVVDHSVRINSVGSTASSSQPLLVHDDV

| Structure (SMILES) | Kd (KIT) | IC50 (CSF1R [1]) | Kd (CSF1R [2]) | IC50 (M-NFS-60 cells) | Kd (FLT3) | Kd (PDGFRβ) |
| --- | --- | --- | --- | --- | --- | --- |
| COc1cc2ncn(Cc3ccc4nc(NCc5ccncc5)sc4c3)c2cc1OC [Example 21, 6-((5,6-dimethoxy-1H-benzo[d]imidazol-1-yl)methyl)-N-(pyridin-4-ylmethyl)benzo[d]thiazol-2-amine] | > 2000 nM | 200 to 500 nM | > 50 nM | > 1500 nM | > 5000 nM | > 2000 nM |
| COc1cc2ncn(Cc3ccc4nc(Nc5ccccc5)sc4c3)c2cc1OC [Example 22, 6-((5,6-dimethoxy-1H-benzo[d]imidazol-1-yl)methyl)-N-phenylbenzo[d]thiazol-2-amine] | 100 to 500 nM | 50 to 200 nM | 5 to 20 nM | 400 to 1500 nM | 1000 to 5000 nM | > 2000 nM |
| COc1ccc2ncn(Cc3ccc4nc(N[C@@H]5CCCC[C@H]5O)sc4c3)c2n1 [Example 23, (1R,2R)-2-((6-((5-methoxy-3H-imidazo[4,5-b]pyridin-3-yl)methyl)benzo[d]thiazol-2-yl)amino)cyclohexanol] | ≤ 100 nM | ≤ 50 nM | ≤ 5 nM | 50 to 400 nM | ≤ 200 nM | 50 to 500 nM |
| COc1cc2ncn(Cc3ccc4nc(NC5CCN(C(C)=O)CC5)sc4c3)c2cc1OC [Example 24, 1-(4-((6-((5,6-dimethoxy-1H-benzo[d]imidazol-1-yl)methyl)benzo[d]thiazol-2-yl)amino)piperidin-1-yl)ethanone acetic acid] | > 2000 nM | > 500 nM | > 50 nM | > 1500 nM | > 5000 nM | > 2000 nM |
| Nc1nc2cccnc2n1Cc1ccc2nc(N[C@@H]3CCCC[C@H]3O)sc2c1 [Example 26, 3-((2-(((1R,2R)-2-hydroxycyclohexyl)amino)benzo[d]thiazol-6-yl)methyl)-3H-imidazo[4,5-b]pyridin-2-aminium acetic acid] | > 2000 nM | > 500 nM | 5 to 20 nM | > 1500 nM | 200 to 1000 nM | > 2000 nM |
| CCOc1ccccc1Nc1nc2ccc(Cn3cnc4cc(OC)c(OC)cc43)cc2s1 [Example 27, 6-((5,6-dimethoxy-1H-benzo[d]imidazol-1-yl)methyl)-N-(2-ethoxyphenyl)benzo[d]thiazol-2-amine] | 100 to 500 nM | 50 to 200 nM | 5 to 20 nM | 50 to 400 nM | 1000 to 5000 nM | 50 to 500 nM |
| COc1cc2ncn(Cc3ccc4nc(NCC5CCCCC5)sc4c3)c2cc1OC [Example 28, N-(cyclohexylmethyl)-6-((5,6-dimethoxy-1H-benzo[d]imidazol-1-yl)methyl)benzo[d]thiazol-2-amine] | ≤ 100 nM | 50 to 200 nM | 5 to 20 nM | 50 to 400 nM | ≤ 200 nM | ≤ 50 nM |
| O[C@@H]1CCCC[C@H]1Nc1nc2ccc(Cn3cnc4cc(Br)cnc43)cc2s1 [Example 29, (1R,2R)-2-((6-((6-bromo-3H-imidazo[4,5-b]pyridin-3-yl)methyl)benzo[d]thiazol-2-yl)amino)cyclohexanol] | ≤ 100 nM | ≤ 50 nM | 5 to 20 nM | 50 to 400 nM | 200 to 1000 nM | 50 to 500 nM |
| COc1ccccc1Nc1nc2ccc(Cn3cnc4cc(OC)c(OC)cc43)cc2s1 [Example 30, 6-((5,6-dimethoxy-1H-benzo[d]imidazol-1-yl)methyl)-N-(2-methoxyphenyl)benzo[d]thiazol-2-amine] | ≤ 100 nM | 50 to 200 nM | ≤ 5 nM | 50 to 400 nM | 1000 to 5000 nM | 50 to 500 nM |
| COc1cc2ncn(Cc3ccc4nc(Nc5ccccc5O)sc4c3)c2cc1OC [Example 31, 2-((6-((5,6-dimethoxy-1H-benzo[d]imidazol-1-yl)methyl)benzo[d]thiazol-2-yl)amino)phenol] | 100 to 500 nM | > 500 nM | ≤ 5 nM | > 1500 nM | 1000 to 5000 nM | 50 to 500 nM |

Reference: patent US9938261B2, “Heterocyclic compounds and methods of use thereof” (AMBIT BIOSCIENCES CORPORATION, priority 2011, dated 2018)
